Data from PubChem BioAssay AID1963842 (Molecular Pharmacology Branch, DTP, NCI, 2024).
pIC50: −log10 of the molar value.

Tested on: 677734-321-R-J1-PDC complex spheroid viability
Test: Anticancer human tumor 677734-321-R-J1-PDC patient-derived soft tissue sarcoma cell line growth inhibition [POLQ]
Conditions: for pIC50: curve of first compound; for viability, T/C: stronger effect = lower value
How it was run: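 Growth inhibition in 3D: complex spheroids (tumor PDC, HUVEC, MSC) treated with POLQ inhibitor combinations; where Cmax unknown, highest tested concentration 10 microM, except SN-38 at 1 microM.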

[1] = second compound 0.0316 µM, first compound 0.0316 µM
[2] = second compound 0.0316 µM, first compound 0.1 µM
[3] = second compound 0.0316 µM, first compound 0.316 µM
[4] = second compound 0.0316 µM, first compound 1 µM
[5] = second compound 0.0316 µM, first compound 3.16 µM
[6] = second compound 0.0316 µM, first compound 10 µM
[7] = second compound 0.1 µM, first compound 0.0316 µM
[8] = second compound 0.1 µM, first compound 0.1 µM
[9] = second compound 0.1 µM, first compound 0.316 µM
[10] = second compound 0.1 µM, first compound 1 µM
[11] = second compound 0.1 µM, first compound 3.16 µM
[12] = second compound 0.1 µM, first compound 10 µM
[13] = second compound 0.316 µM, first compound 0.0316 µM
[14] = second compound 0.316 µM, first compound 0.1 µM
[15] = second compound 0.316 µM, first compound 0.316 µM
[16] = second compound 0.316 µM, first compound 1 µM
[17] = second compound 0.316 µM, first compound 3.16 µM
[18] = second compound 0.316 µM, first compound 10 µM
[19] = second compound 1 µM, first compound 0.0316 µM
[20] = second compound 1 µM, first compound 0.1 µM
[21] = second compound 1 µM, first compound 0.316 µM
[22] = second compound 1 µM, first compound 1 µM
[23] = second compound 1 µM, first compound 3.16 µM
[24] = second compound 1 µM, first compound 10 µM
[25] = second compound 3.16 µM, first compound 0.0316 µM
[26] = second compound 3.16 µM, first compound 0.1 µM
[27] = second compound 3.16 µM, first compound 0.316 µM
[28] = second compound 3.16 µM, first compound 1 µM
[29] = second compound 3.16 µM, first compound 3.16 µM
[30] = second compound 3.16 µM, first compound 10 µM
[31] = second compound 10 µM, first compound 0.0316 µM
[32] = second compound 10 µM, first compound 0.1 µM
[33] = second compound 10 µM, first compound 0.316 µM
[34] = second compound 10 µM, first compound 1 µM
[35] = second compound 10 µM, first compound 3.16 µM
[36] = second compound 10 µM, first compound 10 µM
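Note: spheroids exposed to compounds for one week.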
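Throughout, for viability, T/C: 100% = vehicle DMSO treated spheroids.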

Q: With `CC1COCCN1c1cc(C2(S(C)(=N)=O)CC2)nc(-c2ccnc3[nH]ccc23)n1` (stereo not drawn) + Nc1ccc(C#CCN(C(=O)Cc2ncc(C(F)(F)F)cc2C(F)(F)F)c2ccc(F)cc2)nn1 as the compound, how does the pIC50 (second compound 0.0316 µM) read?
A: 5.86

Q: What about the pIC50 (second compound 0.1 µM) of the same compound?
A: 5.91

Q: And the pIC50 (second compound 0.316 µM)?
A: 6.06

Q: And the pIC50 (second compound 1 µM)?
A: 5.99

Q: And the pIC50 (second compound 3.16 µM)?
A: 6.05

Q: And the pIC50 (second compound 10 µM)?
A: 6.18

Q: What about the viability, T/C [1] of the same compound?
A: 98.3%

Q: And the viability, T/C [2]?
A: 91.7%

Q: And the viability, T/C [3]?
A: 75%

Q: And the viability, T/C [4]?
A: 65.3%

Q: And the viability, T/C [5]?
A: 23.5%

Q: And the viability, T/C [6]?
A: 9.33%

Q: What about the viability, T/C [7] of the same compound?
A: 96.2%

Q: What about the viability, T/C [8] of the same compound?
A: 118%

Q: And the viability, T/C [9]?
A: 73.6%

Q: What about the viability, T/C [10] of the same compound?
A: 57.1%

Q: And the viability, T/C [11]?
A: 28.1%

Q: What about the viability, T/C [12] of the same compound?
A: 7.36%

Q: And the viability, T/C [13]?
A: 109%

Q: And the viability, T/C [14]?
A: 105%

Q: What about the viability, T/C [15] of the same compound?
A: 105%

Q: And the viability, T/C [16]?
A: 42.7%

Q: And the viability, T/C [17]?
A: 27.1%

Q: And the viability, T/C [18]?
A: 9.47%

Q: And the viability, T/C [19]?
A: 118%

Q: And the viability, T/C [20]?
A: 94.5%

Q: And the viability, T/C [21]?
A: 72.9%

Q: What about the viability, T/C [22] of the same compound?
A: 59.2%

Q: What about the viability, T/C [23] of the same compound?
A: 19.1%

Q: And the viability, T/C [24]?
A: 8.77%

Q: And the viability, T/C [25]?
A: 111%

Q: What about the viability, T/C [26] of the same compound?
A: 87.1%

Q: What about the viability, T/C [27] of the same compound?
A: 96.9%

Q: And the viability, T/C [28]?
A: 43.3%

Q: And the viability, T/C [29]?
A: 21.7%

Q: And the viability, T/C [30]?
A: 8.55%

Q: What about the viability, T/C [31] of the same compound?
A: 105%

Q: What about the viability, T/C [32] of the same compound?
A: 103%

Q: And the viability, T/C [33]?
A: 72.6%

Q: What about the viability, T/C [34] of the same compound?
A: 35.2%

Q: What about the viability, T/C [35] of the same compound?
A: 19.3%

Q: What about the viability, T/C [36] of the same compound?
A: 6.41%

Q: How did the pIC50 (second compound 0.0316 µM) turn out when `CCc1cc2c(N3CCc4c(cc(Cn5ccnc5)cc4-c4cn(C)nc4C(F)(F)F)C3=O)cc(C)nc2c(OC)n1` + Nc1ccc(C#CCN(C(=O)Cc2ncc(C(F)(F)F)cc2C(F)(F)F)c2ccc(F)cc2)nn1 was run?
A: < 5.00

Q: What about the pIC50 (second compound 0.1 µM) of the same compound?
A: 5.22

Q: What about the pIC50 (second compound 0.316 µM) of the same compound?
A: 5.12

Q: And the pIC50 (second compound 1 µM)?
A: 5.23

Q: And the pIC50 (second compound 3.16 µM)?
A: 5.24

Q: And the pIC50 (second compound 10 µM)?
A: 5.35

Q: And the viability, T/C [1]?
A: 100%

Q: What about the viability, T/C [2] of the same compound?
A: 101%

Q: What about the viability, T/C [3] of the same compound?
A: 85%

Q: And the viability, T/C [4]?
A: 76.3%

Q: And the viability, T/C [5]?
A: 63.8%

Q: And the viability, T/C [6]?
A: 61.8%

Q: What about the viability, T/C [7] of the same compound?
A: 102%

Q: What about the viability, T/C [8] of the same compound?
A: 94.2%

Q: And the viability, T/C [9]?
A: 77.6%

Q: And the viability, T/C [10]?
A: 78.5%

Q: What about the viability, T/C [11] of the same compound?
A: 53.4%

Q: And the viability, T/C [12]?
A: 45.1%

Q: And the viability, T/C [13]?
A: 104%

Q: What about the viability, T/C [14] of the same compound?
A: 93.6%

Q: What about the viability, T/C [15] of the same compound?
A: 96.4%

Q: What about the viability, T/C [16] of the same compound?
A: 91.2%

Q: And the viability, T/C [17]?
A: 73.2%

Q: What about the viability, T/C [18] of the same compound?
A: 42.1%

Q: And the viability, T/C [19]?
A: 116%

Q: And the viability, T/C [20]?
A: 88%

Q: And the viability, T/C [21]?
A: 100%

Q: And the viability, T/C [22]?
A: 90.1%

Q: What about the viability, T/C [23] of the same compound?
A: 60%

Q: What about the viability, T/C [24] of the same compound?
A: 39.1%

Q: What about the viability, T/C [25] of the same compound?
A: 107%

Q: And the viability, T/C [26]?
A: 97.3%

Q: What about the viability, T/C [27] of the same compound?
A: 96.6%

Q: What about the viability, T/C [28] of the same compound?
A: 95.2%

Q: And the viability, T/C [29]?
A: 65%

Q: And the viability, T/C [30]?
A: 35.6%

Q: And the viability, T/C [31]?
A: 110%

Q: And the viability, T/C [32]?
A: 88.5%

Q: What about the viability, T/C [33] of the same compound?
A: 91.4%

Q: And the viability, T/C [34]?
A: 86.5%

Q: What about the viability, T/C [35] of the same compound?
A: 55.5%

Q: And the viability, T/C [36]?
A: 29.8%

Q: Which results are given for `CCc1cc2c(N3CCc4c(cc(Cn5ccnc5)cc4-c4cn(C)nc4C(F)(F)F)C3=O)ccnc2c(OC)n1` + Nc1ccc(C#CCN(C(=O)Cc2ncc(C(F)(F)F)cc2C(F)(F)F)c2ccc(F)cc2)nn1?
A: pIC50 (second compound 0.0316 µM): < 5.00; pIC50 (second compound 0.1 µM): 5.32; pIC50 (second compound 0.316 µM): 5.12; pIC50 (second compound 1 µM): 5.06; pIC50 (second compound 3.16 µM): < 5.00; pIC50 (second compound 10 µM): 5.26; viability, T/C [1]: 89.5%; viability, T/C [2]: 124%; viability, T/C [3]: 110%; viability, T/C [4]: 70.7%; viability, T/C [5]: 63.5%; viability, T/C [6]: 38.4%; viability, T/C [7]: 88.5%; viability, T/C [8]: 111%; viability, T/C [9]: 101%; viability, T/C [10]: 87.6%; viability, T/C [11]: 54.9%; viability, T/C [12]: 41.8%; viability, T/C [13]: 120%; viability, T/C [14]: 103%; viability, T/C [15]: 87.1%; viability, T/C [16]: 88.9%; viability, T/C [17]: 86.1%; viability, T/C [18]: 38.1%; viability, T/C [19]: 127%; viability, T/C [20]: 109%; viability, T/C [21]: 100%; viability, T/C [22]: 79.1%; viability, T/C [23]: 63.9%; viability, T/C [24]: 48%; viability, T/C [25]: 95.7%; viability, T/C [26]: 108%; viability, T/C [27]: 113%; viability, T/C [28]: 79.8%; viability, T/C [29]: 64.3%; viability, T/C [30]: 50.9%; viability, T/C [31]: 102%; viability, T/C [32]: 83.9%; viability, T/C [33]: 83.7%; viability, T/C [34]: 90.5%; viability, T/C [35]: 62.6%; viability, T/C [36]: 35.9%

Q: With `COc1cc2cc(C(=O)CCC(=O)O)sc2cc1OC` + Nc1ccc(C#CCN(C(=O)Cc2ncc(C(F)(F)F)cc2C(F)(F)F)c2ccc(F)cc2)nn1 as the compound, how does the pIC50 (second compound 0.0316 µM) read?
A: < 5.00

Q: And the pIC50 (second compound 0.1 µM)?
A: < 5.00

Q: And the pIC50 (second compound 0.316 µM)?
A: < 5.00

Q: And the pIC50 (second compound 1 µM)?
A: < 5.00

Q: And the pIC50 (second compound 3.16 µM)?
A: < 5.00

Q: And the pIC50 (second compound 10 µM)?
A: < 5.00

Q: What about the viability, T/C [1] of the same compound?
A: 105%

Q: What about the viability, T/C [2] of the same compound?
A: 105%

Q: What about the viability, T/C [3] of the same compound?
A: 103%

Q: What about the viability, T/C [4] of the same compound?
A: 93.3%

Q: And the viability, T/C [5]?
A: 108%

Q: And the viability, T/C [6]?
A: 104%

Q: And the viability, T/C [7]?
A: 103%

Q: What about the viability, T/C [8] of the same compound?
A: 98.5%

Q: What about the viability, T/C [9] of the same compound?
A: 100%

Q: What about the viability, T/C [10] of the same compound?
A: 98.5%

Q: And the viability, T/C [11]?
A: 115%

Q: What about the viability, T/C [12] of the same compound?
A: 110%

Q: What about the viability, T/C [13] of the same compound?
A: 104%

Q: And the viability, T/C [14]?
A: 102%

Q: And the viability, T/C [15]?
A: 103%

Q: And the viability, T/C [16]?
A: 108%

Q: What about the viability, T/C [17] of the same compound?
A: 105%

Q: What about the viability, T/C [18] of the same compound?
A: 116%

Q: What about the viability, T/C [19] of the same compound?
A: 105%

Q: And the viability, T/C [20]?
A: 91.4%

Q: What about the viability, T/C [21] of the same compound?
A: 105%

Q: And the viability, T/C [22]?
A: 104%

Q: What about the viability, T/C [23] of the same compound?
A: 95.2%

Q: What about the viability, T/C [24] of the same compound?
A: 109%

Q: What about the viability, T/C [25] of the same compound?
A: 97%

Q: What about the viability, T/C [26] of the same compound?
A: 98.1%

Q: And the viability, T/C [27]?
A: 113%

Q: And the viability, T/C [28]?
A: 109%

Q: What about the viability, T/C [29] of the same compound?
A: 109%

Q: What about the viability, T/C [30] of the same compound?
A: 112%

Q: And the viability, T/C [31]?
A: 104%

Q: And the viability, T/C [32]?
A: 110%

Q: What about the viability, T/C [33] of the same compound?
A: 94.6%

Q: And the viability, T/C [34]?
A: 95%

Q: And the viability, T/C [35]?
A: 107%

Q: And the viability, T/C [36]?
A: 86.3%
